Experimental data from the supplement of paper PMC7244745.
± gives the uncertainty stated by the source.

Legend:
[1] = test system: Klebsiella pneumoniae ATCC 13882; test: final pH-related absorbance (A557-A630) after 24 h (absorbance units); higher = more ureolysis; extreme values may be limits of the assay
Method: (§1)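 Klebsiella pneumoniae ATCC 13882 (start OD600 0.05) grown in M9U medium with 40 mM urea and phenol red plus inhibitor, in triplicate in 96-well plates. A557 and OD630 were read every 15 min for 24 h. Ureolysis was followed as the pH-related A557-A630: onset time, Gompertz-fit rate and final value. Growth was followed as OD630.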

[2] = test system: Klebsiella pneumoniae ATCC 13882; test: final OD630 (growth) after 24 h; higher = more bacterial growth; extreme values may be limits of the assay
Method: as §1

[3] = test system: Klebsiella pneumoniae ATCC 13882; test: rate of pH (A557-A630) increase, Gompertz fit (10^-4 s-1); higher = faster ureolysis; extreme values may be limits of the assay
Method: as §1

[4] = test system: Klebsiella pneumoniae ATCC 13882; test: onset of ureolytic pH increase; higher = more delayed ureolysis (inhibition)
Method: as §1

Structure (SMILES)	final pH-related absorbance ([1]; 0.1 mM)	final pH-related absorbance ([1]; 1 mM)	final pH-related absorbance ([1]; 10 mM)	final OD630 ([2]; 0.1 mM)	final OD630 ([2]; 1 mM)	final OD630 ([2]; 10 mM)	rate of pH ([3]; 0.1 mM)	rate of pH ([3]; 1 mM)	rate of pH ([3]; 10 mM)	onset of ureolytic pH increase ([4]; 0.1 mM)	onset of ureolytic pH increase ([4]; 1 mM)	onset of ureolytic pH increase ([4]; 10 mM)	further results
CC(=O)NC(N)=S [Acetylthiourea]	–	–	–	–	–	–	–	–	–	–	–	–	final pH-related absorbance ([1]; 0.05 mM): 0.241 ± 0.011; final pH-related absorbance ([1]; 0.5 mM): 0.246 ± 0.002; final pH-related absorbance ([1]; 5 mM): 0.284 ± 0.05; final OD630 ([2]; 0.05 mM): 0.491 ± 0.011; final OD630 ([2]; 0.5 mM): 0.491 ± 0.004; final OD630 ([2]; 5 mM): 0.507 ± 0.021; rate of pH ([3]; 0.05 mM): 2 ± 0.057; rate of pH ([3]; 0.5 mM): 2.03 ± 0.042; rate of pH ([3]; 5 mM): 2.62 ± 0.37; onset of ureolytic pH increase ([4]; 0.05 mM): 7.13 ± 0.148 h; onset of ureolytic pH increase ([4]; 0.5 mM): 7.095 ± 0.065 h; onset of ureolytic pH increase ([4]; 5 mM): 6.92 ± 0.267 h
O=[N+]([O-])[O-].[Ag+] [AgNO3]	0	0	0	0	0	0	0	0	0	> 25 h	> 25 h	> 25 h	–
NC(=O)NC1NC(=O)NC1=O (stereo not given) [Allantoin]	–	–	–	–	–	–	–	–	–	–	–	–	final pH-related absorbance ([1]; 0.033 mM): 0.231 ± 0.0095; final pH-related absorbance ([1]; 0.33 mM): 0.216 ± 0.003; final pH-related absorbance ([1]; 3.33 mM): 0.222 ± 0.0053; final OD630 ([2]; 0.033 mM): 0.525 ± 0.0093; final OD630 ([2]; 0.33 mM): 0.507 ± 0.0058; final OD630 ([2]; 3.33 mM): 0.495 ± 0.0081; rate of pH ([3]; 0.033 mM): 1.66 ± 0.032; rate of pH ([3]; 0.33 mM): 1.718 ± 0.017; rate of pH ([3]; 3.33 mM): 1.68 ± 0.02; onset of ureolytic pH increase ([4]; 0.033 mM): 9.624 ± 0.085 h; onset of ureolytic pH increase ([4]; 0.33 mM): 9.619 ± 0.0733 h; onset of ureolytic pH increase ([4]; 3.33 mM): 10 ± 0.117 h
C=CCNC(N)=S [Allylthiourea]	0.159 ± 0.0052	0.154 ± 0.0052	0.135 ± 0.0034	0.417 ± 0.013	0.397 ± 0.015	0.366 ± 0.0047	1.47 ± 0.046	1.454 ± 0.0015	1.383 ± 0.0037	9.392 ± 0.0683 h	9.93 ± 0.483 h	12.93 ± 0.123 h	–
OB(O)O [Boric acid]	0.409 ± 0.0087	0.418 ± 0.018	0	0.437 ± 0.0082	0.432 ± 0.0018	0.297 ± 0.0064	1.62 ± 0.03	1.48 ± 0.2	0	9.85 ± 0.103 h	10.3 ± 0.567 h	> 15 h	–
